Data published in ChEMBL document CHEMBL4622872, “Discovery of DS-1971a, a Potent, Selective NaV1.7 Inhibitor” (J Med Chem, 2020).
Values after ≈ are worked out from the molar mass of the structure shown.

Tests used:
[1] = Distribution coefficient, log D of the compound in 1-octanol and PBS buffer at pH 7.4 measured after 30 mins by LC-MS analysis; type: physicochemical; conditions: 1-octanol/PBS buffer
[2] = Aqueous thermodynamic solubility of the compound at pH 6.8 measured after 4 hrs by UV-HPLC analysis; type: physicochemical; conditions: buffer, pH 6.8; read-out: Therm_solubility
[3] = Stability of the compound in mouse liver microsomes assessed as parent compound remaining measured after 0.5 hrs; type: ADME, Microsome; conditions: mouse liver microsomes, read-out: Stability

Row | SMILES | logD at 0.5 h [1] | solubility thermodynamic at 4 h [2] [µM] | remaining at 0.5 h [3] [%]
1 | Cn1nccc1[C@H]1CCC[C@@H]1Oc1cc(F)c(S(=O)(=O)Nc2ncns2)cc1F (racemic) | 0.6 | > 1900 | 91
2 | Cn1nccc1[C@H]1CCC[C@@H]1Oc1cc(F)c(S(=O)(=O)Nc2nccs2)cc1F (racemic) | 2.1 | 250 (≈ 110 µg/mL) | 54
3 | Cn1nccc1[C@H]1CCCC[C@@H]1Oc1cc(F)c(S(=O)(=O)Nc2cscn2)cc1F (racemic) | 1.8 | 660 (≈ 300 µg/mL) | 28
4 | Cc1nsc(NS(=O)(=O)c2cc(F)c(O[C@H]3CCC[C@@H]3c3ccnn3C)cc2F)n1 (racemic) | 0.9 | 1800 (≈ 820 µg/mL) | 69

The remaining lines, values ahead:

Row | logD at 0.5 h [1] | solubility thermodynamic at 4 h [2] [µM] | remaining at 0.5 h [3] [%] | SMILES
5 | 0.9 | 1200 (≈ 518 µg/mL) | 87 | Cc1cc(S(=O)(=O)Nc2ccncn2)c(F)cc1O[C@H]1CCC[C@@H]1c1ccnn1C (racemic)
6 | 0.9 | 240 (≈ 108 µg/mL) | 88 | Cn1nccc1[C@H]1CCC[C@@H]1Oc1cc(F)c(S(=O)(=O)Nc2ccncn2)cc1Cl (racemic)
7 | 0.9 | 1800 (≈ 802 µg/mL) | 75 | Cc1cc(S(=O)(=O)Nc2ccncn2)c(F)cc1O[C@H]1CCCC[C@@H]1c1ccnn1C (racemic)
8 | 0.3 | 1900 (≈ 854 µg/mL) | 80 | Cn1nccc1[C@H]1CCCC[C@@H]1Oc1cc(F)c(S(=O)(=O)Nc2ccncn2)cc1F (racemic)
